Laboratory results published in the supplement of paper PMC10307832.

How the values were obtained:
Assay in all cases: relative viability (nuclei count vs DMSO), 5 days (fraction); higher = more cells survive
[1] = test system: HCC-366
How it was run: (§1)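 Lung cancer cell lines, seeded in 1536-well plates, were treated the following day by pin tool with a single drug or with five library-drug doses (not always all listed) in √10 steps on top of a fixed anchor-drug dose. Cells were fixed and nuclei stained in one step after 5 days, and nuclei were counted. Relative viability is the nuclei count for treated wells divided by that for vehicle wells, reported as medians of duplicate plates.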

[2] = test system: NCI-H1792
How it was run: as §1

[3] = test system: NCI-H2087
How it was run: as §1

[4] = test system: NCI-H647
How it was run: as §1

[5] = test system: SK-MES-1
How it was run: as §1

[6] = test system: EKVX
How it was run: as §1

[7] = test system: SK-LU-1
How it was run: as §1

[8] = test system: LOU-NH91
How it was run: as §1

[9] = test system: HCC-827
How it was run: as §1

[10] = test system: BEN
How it was run: as §1

[11] = test system: NCI-H2009
How it was run: as §1

[12] = test system: NCI-H2170
How it was run: as §1

[13] = test system: LC-2-ad
How it was run: as §1

[14] = test system: NCI-H1395
How it was run: as §1

[15] = test system: NCI-H661
How it was run: as §1

[16] = test system: NCI-H1355
How it was run: as §1

[17] = test system: NCI-H1734
How it was run: as §1

[18] = test system: NCI-H1437
How it was run: as §1

[19] = test system: NCI-H2405
How it was run: as §1

[20] = test system: NCI-H2228
How it was run: as §1

[21] = test system: NCI-H596
How it was run: as §1

[22] = test system: HARA
How it was run: as §1

## NC(=O)Nc1cc(-c2cccc(F)c2)sc1C(=O)N[C@H]1CCCNC1 [AZD7762] + CS(=O)(=O)N1CCN(Cc2cc3nc(-c4cccc5[nH]ncc45)nc(N4CCOCC4)c3s2)CC1 [Pictilisib] (partner 1 µM)
[1]; first compound 0.01 µM
  relative viability: 0.153
[1]; first compound 0.03162 µM
  relative viability: 0.128
[1]; first compound 0.1 µM
  relative viability: 0.213
[1]; first compound 0.3162 µM
  relative viability: 0.137
[1]; first compound 1 µM
  relative viability: 0.133
[2]; first compound 0.01 µM
  relative viability: 0.323
[2]; first compound 0.03162 µM
  relative viability: 0.328
[2]; first compound 0.1 µM
  relative viability: 0.311
[2]; first compound 0.3162 µM
  relative viability: 0.377
[2]; first compound 1 µM
  relative viability: 0.431
[3]; first compound 0.01 µM
  relative viability: 0.982
[3]; first compound 0.03162 µM
  relative viability: 0.902
[3]; first compound 0.1 µM
  relative viability: 1.23
[3]; first compound 0.3162 µM
  relative viability: 1.31
[3]; first compound 1 µM
  relative viability: 1.09
[4]; first compound 0.03162 µM
  relative viability: 0.559
[4]; first compound 0.1 µM
  relative viability: 0.427
[4]; first compound 0.3162 µM
  relative viability: 0.375
[4]; first compound 1 µM
  relative viability: 0.16
[5]; first compound 0.01 µM
  relative viability: 0.353
[5]; first compound 0.03162 µM
  relative viability: 0.322
[5]; first compound 0.1 µM
  relative viability: 0.358
[5]; first compound 0.3162 µM
  relative viability: 0.331
[5]; first compound 1 µM
  relative viability: 0.25
[6]; first compound 0.01 µM
  relative viability: 0.459
[6]; first compound 0.03162 µM
  relative viability: 0.451
[6]; first compound 0.1 µM
  relative viability: 0.462
[6]; first compound 0.3162 µM
  relative viability: 0.327
[6]; first compound 1 µM
  relative viability: 0.276
[7]; first compound 0.01 µM
  relative viability: 0.694
[7]; first compound 0.03162 µM
  relative viability: 0.644
[7]; first compound 0.1 µM
  relative viability: 0.337
[7]; first compound 0.3162 µM
  relative viability: 0.176
[7]; first compound 1 µM
  relative viability: 0.2
[8]; first compound 0.01 µM
  relative viability: 0.546
[8]; first compound 0.03162 µM
  relative viability: 0.555
[8]; first compound 0.1 µM
  relative viability: 0.473
[8]; first compound 0.3162 µM
  relative viability: 0.489
[8]; first compound 1 µM
  relative viability: 0.595
[9]; first compound 0.01 µM
  relative viability: 1.36
[9]; first compound 0.03162 µM
  relative viability: 0.962
[9]; first compound 0.1 µM
  relative viability: 1.17
[9]; first compound 0.3162 µM
  relative viability: 1.21
[9]; first compound 1 µM
  relative viability: 0.682
[10]; first compound 0.01 µM
  relative viability: 0.713
[10]; first compound 0.03162 µM
  relative viability: 0.689
[10]; first compound 0.1 µM
  relative viability: 0.537
[10]; first compound 0.3162 µM
  relative viability: 0.539
[10]; first compound 1 µM
  relative viability: 0.41
[11]; first compound 0.01 µM
  relative viability: 0.867
[11]; first compound 0.03162 µM
  relative viability: 0.865
[11]; first compound 0.1 µM
  relative viability: 0.909
[11]; first compound 0.3162 µM
  relative viability: 0.677
[11]; first compound 1 µM
  relative viability: 0.321
[12]; first compound 0.01 µM
  relative viability: 0.322
[12]; first compound 0.03162 µM
  relative viability: 0.338
[12]; first compound 0.1 µM
  relative viability: 0.326
[12]; first compound 0.3162 µM
  relative viability: 0.292
[12]; first compound 1 µM
  relative viability: 0.247
[13]; first compound 0.01 µM
  relative viability: 0.438
[13]; first compound 0.03162 µM
  relative viability: 0.39
[13]; first compound 0.1 µM
  relative viability: 0.321
[13]; first compound 0.3162 µM
  relative viability: 0.308
[13]; first compound 1 µM
  relative viability: 0.196
[14]; first compound 0.01 µM
  relative viability: 0.663
[14]; first compound 0.03162 µM
  relative viability: 0.643
[14]; first compound 0.1 µM
  relative viability: 0.674
[14]; first compound 0.3162 µM
  relative viability: 0.514
[14]; first compound 1 µM
  relative viability: 0.403
[15]; first compound 0.01 µM
  relative viability: 0.41
[15]; first compound 0.03162 µM
  relative viability: 0.406
[15]; first compound 0.1 µM
  relative viability: 0.356
[15]; first compound 0.3162 µM
  relative viability: 0.316
[15]; first compound 1 µM
  relative viability: 0.312
[16]; first compound 0.01 µM
  relative viability: 0.405
[16]; first compound 0.03162 µM
  relative viability: 0.428
[16]; first compound 0.1 µM
  relative viability: 0.44
[16]; first compound 0.3162 µM
  relative viability: 0.445
[16]; first compound 1 µM
  relative viability: 0.391
[17]; first compound 0.01 µM
  relative viability: 0.538
[17]; first compound 0.03162 µM
  relative viability: 0.535
[17]; first compound 0.1 µM
  relative viability: 0.524
[17]; first compound 0.3162 µM
  relative viability: 0.384
[17]; first compound 1 µM
  relative viability: 0.293
[18]; first compound 0.01 µM
  relative viability: 0.501
[18]; first compound 0.03162 µM
  relative viability: 0.442
[18]; first compound 0.1 µM
  relative viability: 0.483
[18]; first compound 0.3162 µM
  relative viability: 0.555
[18]; first compound 1 µM
  relative viability: 0.477
[19]; first compound 0.01 µM
  relative viability: 0.457
[19]; first compound 0.03162 µM
  relative viability: 0.559
[19]; first compound 0.1 µM
  relative viability: 0.382
[19]; first compound 0.3162 µM
  relative viability: 0.291
[19]; first compound 1 µM
  relative viability: 0.22
[20]; first compound 0.01 µM
  relative viability: 0.381
[20]; first compound 0.03162 µM
  relative viability: 0.539
[20]; first compound 0.1 µM
  relative viability: 0.396
[20]; first compound 0.3162 µM
  relative viability: 0.21
[20]; first compound 1 µM
  relative viability: 0.136
[21]; first compound 0.01 µM
  relative viability: 0.405
[21]; first compound 0.03162 µM
  relative viability: 0.411
[21]; first compound 0.1 µM
  relative viability: 0.487
[21]; first compound 0.3162 µM
  relative viability: 0.454
[21]; first compound 1 µM
  relative viability: 0.389
[22]; first compound 0.01 µM
  relative viability: 0.346
[22]; first compound 0.03162 µM
  relative viability: 0.435
[22]; first compound 0.1 µM
  relative viability: 0.353
[22]; first compound 0.3162 µM
  relative viability: 0.412
[22]; first compound 1 µM
  relative viability: 0.32
